Here are results for 15 molecules from ChEMBL document CHEMBL5584214, “Design of MERS-CoV entry inhibitory short peptides based on helix-stabilizing strategies” (Bioorg Med Chem Lett, 2024).

Non-standard residues stand in square brackets, D forms with d. Residues, ends and D or L forms follow the SMILES beside them. *: point of attachment. PEG24 = NCCOCCOCCOCCOCCOCCOCCOCCOCCOCCOCCOCCOCCOCCOCCOCCOCCOCCOCCOCCOCCOCCOCCOCCOCCC(=O)O; PEG12 = NCCOCCOCCOCCOCCOCCOCCOCCOCCOCCOCCOCCOCCC(=O)O; Palmitoyl = CCCCCCCCCCCCCCCC(=O)*; Octanoyl = CCCCCCCC(=O)*; AEEA = NCCOCCOCC(=O)O; Aib = CC(C)(N)C(=O)O

Usually EC50 stands for the concentration that produces a half-maximal response. Lower therefore signals higher potency in that assay.

This assay can be described thus: Inhibition of MERS-CoV Spike glycoprotein mediated cell-cell fusion. Details: species or system Middle East respiratory syndrome-related coronavirus.
Molecule Ac-LDLTYEMASLQAVVKALNESY-NH2 showed a 50% effective concentration (EC50) greater than 50 µM.
The same measure for `CSCC[C@H](NC(=O)C(C)(C)NC(=O)[C@H](Cc1ccc(O)cc1)NC(=O)[C@H](CCC(=O)O)NC(=O)[C@H](CC(C)C)NC(=O)C(C)(C)NC(=O)[C@H](CC(C)C)NC(C)=O)C(=O)N[C@@H](CCCCN)C(=O)N[C@@H](CO)C(=O)N[C@@H](CC(C)C)C(=O)N[C@@H](CCC(N)=O)C(=O)N[C@@H](CCC(N)=O)C(=O)N[C@H](C(=O)N[C@H](C(=O)N[C@@H](CCCCN)C(=O)N[C@@H](C)C(=O)N[C@@H](CC(C)C)C(=O)N[C@@H](CC(N)=O)C(=O)N[C@@H](CCC(=O)O)C(=O)N[C@@H](CO)C(=O)N[C@@H](Cc1ccc(O)cc1)C(N)=O)C(C)C)C(C)C`: 14.8 µM; for `CSCC[C@H](NC(=O)[C@H](CCC(=O)O)NC(=O)[C@H](Cc1ccc(O)cc1)NC(=O)[C@@H](NC(=O)[C@H](CC(C)C)NC(=O)[C@H](CC(=O)O)NC(=O)[C@H](CC(C)C)NC(C)=O)[C@@H](C)O)C(=O)N[C@@H](CC(C)C)C(=O)N[C@@H](CO)C(=O)N[C@@H](CC(C)C)C(=O)N[C@@H](CCC(N)=O)C(=O)N[C@@H](CCC(N)=O)C(=O)N[C@H](C(=O)N[C@H](C(=O)NC(C)(C)C(=O)N[C@@H](C)C(=O)N[C@@H](CC(C)C)C(=O)N[C@@H](CC(N)=O)C(=O)NC(C)(C)C(=O)N[C@@H](CO)C(=O)N[C@@H](Cc1ccc(O)cc1)C(N)=O)C(C)C)C(C)C`: 3.04 µM; for `CSCC[C@H](NC(=O)[C@H](CCC(=O)O)NC(=O)[C@H](Cc1ccc(O)cc1)NC(=O)C(C)(C)NC(=O)[C@H](CC(C)C)NC(=O)[C@H](CC(=O)O)NC(=O)[C@H](CC(C)C)NC(C)=O)C(=O)NC(C)(C)C(=O)N[C@@H](CO)C(=O)N[C@@H](CC(C)C)C(=O)N[C@@H](CCC(N)=O)C(=O)N[C@@H](CCC(N)=O)C(=O)N[C@H](C(=O)N[C@H](C(=O)N[C@@H](CCCCN)C(=O)N[C@@H](C)C(=O)N[C@@H](CC(C)C)C(=O)N[C@@H](CC(N)=O)C(=O)N[C@@H](CCC(=O)O)C(=O)N[C@@H](CO)C(=O)N[C@@H](Cc1ccc(O)cc1)C(N)=O)C(C)C)C(C)C`: 24.4 µM.
`CSCC[C@H](NC(=O)C(C)(C)NC(=O)[C@H](Cc1ccc(O)cc1)NC(=O)[C@@H](NC(=O)[C@H](CC(C)C)NC(=O)C(C)(C)NC(=O)[C@H](CC(C)C)NC(C)=O)[C@@H](C)O)C(=O)N[C@@H](CC(C)C)C(=O)N[C@@H](CO)C(=O)N[C@@H](CC(C)C)C(=O)N[C@@H](CCC(N)=O)C(=O)N[C@@H](CCC(N)=O)C(=O)N[C@H](C(=O)N[C@H](C(=O)N[C@@H](CCCCN)C(=O)N[C@@H](C)C(=O)N[C@@H](CC(C)C)C(=O)N[C@@H](CC(N)=O)C(=O)N[C@@H](CCC(=O)O)C(=O)N[C@@H](CO)C(=O)N[C@@H](Cc1ccc(O)cc1)C(N)=O)C(C)C)C(C)C` yielded a concentration for a half-maximal effect (EC50) of 2.33 µM.
`CSCC[C@H](NC(=O)[C@H](CCC(=O)O)NC(=O)C(C)(C)NC(=O)[C@@H](NC(=O)[C@H](CC(C)C)NC(=O)[C@H](CC(=O)O)NC(=O)C(C)(C)NC(C)=O)[C@@H](C)O)C(=O)N[C@@H](CC(C)C)C(=O)N[C@@H](CO)C(=O)N[C@@H](CC(C)C)C(=O)N[C@@H](CCC(N)=O)C(=O)N[C@@H](CCC(N)=O)C(=O)N[C@H](C(=O)N[C@H](C(=O)N[C@@H](CCCCN)C(=O)N[C@@H](C)C(=O)N[C@@H](CC(C)C)C(=O)N[C@@H](CC(N)=O)C(=O)N[C@@H](CCC(=O)O)C(=O)N[C@@H](CO)C(=O)N[C@@H](Cc1ccc(O)cc1)C(N)=O)C(C)C)C(C)C`: the EC50 was greater than 50 µM.
The molecule `CSCC[C@H](NC(=O)[C@H](CCC(=O)O)NC(=O)[C@H](Cc1ccc(O)cc1)NC(=O)[C@@H](NC(=O)[C@H](CC(C)C)NC(=O)[C@H](CC(=O)O)NC(=O)[C@H](CC(C)C)NC(C)=O)[C@@H](C)O)C(=O)N[C@@H](CC(C)C)C(=O)NC(C)(C)C(=O)N[C@@H](CC(C)C)C(=O)N[C@@H](CCC(N)=O)C(=O)N[C@@H](CCC(N)=O)C(=O)NC(C)(C)C(=O)N[C@H](C(=O)N[C@@H](CCCCN)C(=O)N[C@@H](C)C(=O)N[C@@H](CC(C)C)C(=O)N[C@@H](CC(N)=O)C(=O)N[C@@H](CCC(=O)O)C(=O)N[C@@H](CO)C(=O)N[C@@H](Cc1ccc(O)cc1)C(N)=O)C(C)C` (Ac-LDLTYEML[Aib]LQQ[Aib]VKALNESY-NH2) gave an EC50 greater than 50 µM.
For `CCCCCCCC(=O)NCCCC[C@H](NC(=O)COCCOCCNC(=O)[C@H](Cc1ccc(O)cc1)NC(=O)[C@H](CO)NC(=O)[C@H](CCC(=O)O)NC(=O)[C@H](CC(N)=O)NC(=O)[C@H](CC(C)C)NC(=O)[C@H](CCCCN)NC(=O)[C@H](CCCCN)NC(=O)[C@@H](NC(=O)[C@@H](NC(=O)[C@H](CCC(=O)O)NC(=O)[C@H](CCC(N)=O)NC(=O)[C@H](CC(C)C)NC(=O)[C@H](CO)NC(=O)[C@H](CC(C)C)NC(=O)[C@H](CCSC)NC(=O)C(C)(C)NC(=O)[C@H](Cc1ccc(O)cc1)NC(=O)[C@@H](NC(=O)[C@H](CC(C)C)NC(=O)C(C)(C)NC(=O)[C@H](CC(C)C)NC(C)=O)[C@@H](C)O)C(C)C)C(C)C)C(N)=O` (Ac-L[Aib]LTY[Aib]MLSLQEVVKKLNESY[AEEA]K(Octanoyl)-NH2) the value was 0.864 µM.
In turn, `CSCC[C@H](NC(=O)[C@H](CCC(=O)O)NC(=O)[C@H](Cc1ccc(O)cc1)NC(=O)[C@@H](NC(=O)[C@H](CC(C)C)NC(=O)[C@H](CC(=O)O)NC(=O)[C@H](CC(C)C)NC(C)=O)[C@@H](C)O)C(=O)N[C@@H](CC(C)C)C(=O)N[C@@H](CO)C(=O)N[C@@H](CC(C)C)C(=O)N[C@@H](CCC(N)=O)C(=O)N[C@@H](CCC(N)=O)C(=O)N[C@H](C(=O)N[C@H](C(=O)N[C@@H](CCCCN)C(=O)N[C@@H](C)C(=O)N[C@@H](CC(C)C)C(=O)N[C@@H](CC(N)=O)C(=O)N[C@@H](CCC(=O)O)C(=O)N[C@@H](CO)C(=O)N[C@@H](Cc1ccc(O)cc1)C(N)=O)C(C)C)C(C)C` registered an EC50 greater than 50 µM.
The same measure for `CSCC[C@H](NC(=O)C(C)(C)NC(=O)[C@H](Cc1ccc(O)cc1)NC(=O)[C@@H](NC(=O)[C@H](CC(C)C)NC(=O)C(C)(C)NC(=O)[C@H](CC(C)C)NC(C)=O)[C@@H](C)O)C(=O)N[C@@H](CC(C)C)C(=O)N[C@@H](CO)C(=O)N[C@@H](CC(C)C)C(=O)N[C@@H](CCC(N)=O)C(=O)N[C@@H](CCC(=O)O)C(=O)N[C@H](C(=O)N[C@H](C(=O)N[C@@H](CCCCN)C(=O)N[C@@H](CCCCN)C(=O)N[C@@H](CC(C)C)C(=O)N[C@@H](CC(N)=O)C(=O)N[C@@H](CCC(=O)O)C(=O)N[C@@H](CO)C(=O)N[C@@H](Cc1ccc(O)cc1)C(N)=O)C(C)C)C(C)C` (Ac-L[Aib]LTY[Aib]MLSLQEVVKKLNESY-NH2): 3.62 µM; for `CCCCCCCCCCCCCCCC(=O)NCCCC[C@H](NC(=O)CCOCCOCCOCCOCCOCCOCCOCCOCCOCCOCCOCCOCCOCCOCCOCCOCCOCCOCCOCCOCCOCCOCCOCCOCCNC(=O)[C@H](Cc1ccc(O)cc1)NC(=O)[C@H](CO)NC(=O)[C@H](CCC(=O)O)NC(=O)[C@H](CC(N)=O)NC(=O)[C@H](CC(C)C)NC(=O)[C@H](CCCCN)NC(=O)[C@H](CCCCN)NC(=O)[C@@H](NC(=O)[C@@H](NC(=O)[C@H](CCC(=O)O)NC(=O)[C@H](CCC(N)=O)NC(=O)[C@H](CC(C)C)NC(=O)[C@H](CO)NC(=O)[C@H](CC(C)C)NC(=O)[C@H](CCSC)NC(=O)C(C)(C)NC(=O)[C@H](Cc1ccc(O)cc1)NC(=O)[C@@H](NC(=O)[C@H](CC(C)C)NC(=O)C(C)(C)NC(=O)[C@H](CC(C)C)NC(C)=O)[C@@H](C)O)C(C)C)C(C)C)C(N)=O` (Ac-L[Aib]LTY[Aib]MLSLQEVVKKLNESY[PEG24]K(Palmitoyl)-NH2): greater than 50 µM; for `CSCC[C@H](NC(=O)[C@H](CCC(=O)O)NC(=O)[C@H](Cc1ccc(O)cc1)NC(=O)[C@@H](NC(=O)[C@H](CC(C)C)NC(=O)[C@H](CC(=O)O)NC(=O)[C@H](CC(C)C)NC(C)=O)[C@@H](C)O)C(=O)N[C@@H](CC(C)C)C(=O)N[C@@H](CO)C(=O)N[C@@H](CC(C)C)C(=O)NC(C)(C)C(=O)N[C@@H](CCC(N)=O)C(=O)N[C@H](C(=O)N[C@H](C(=O)NC(C)(C)C(=O)N[C@@H](C)C(=O)N[C@@H](CC(C)C)C(=O)N[C@@H](CC(N)=O)C(=O)N[C@@H](CCC(=O)O)C(=O)N[C@@H](CO)C(=O)N[C@@H](Cc1ccc(O)cc1)C(N)=O)C(C)C)C(C)C` (Ac-LDLTYEMLSL[Aib]QVV[Aib]ALNESY-NH2): 2.55 µM.
`CSCC[C@H](NC(=O)C(C)(C)NC(=O)[C@H](Cc1ccc(O)cc1)NC(=O)[C@H](CCC(=O)O)NC(=O)[C@H](CC(C)C)NC(=O)C(C)(C)NC(=O)[C@H](CC(C)C)NC(C)=O)C(=O)N[C@@H](CCCCN)C(=O)N[C@@H](CO)C(=O)N[C@@H](CC(C)C)C(=O)N[C@@H](CCC(N)=O)C(=O)N[C@@H](CCC(=O)O)C(=O)N[C@H](C(=O)N[C@H](C(=O)N[C@@H](CCCCN)C(=O)N[C@@H](CCCCN)C(=O)N[C@@H](CC(C)C)C(=O)N[C@@H](CC(N)=O)C(=O)N[C@@H](CCC(=O)O)C(=O)N[C@@H](CO)C(=O)N[C@@H](Cc1ccc(O)cc1)C(N)=O)C(C)C)C(C)C` (Ac-L[Aib]LEY[Aib]MKSLQEVVKKLNESY-NH2) yielded a concentration giving a half-maximal response (EC50) of 24 µM. Compared with the last molecule, the EC50 is about 9.4-fold higher.
For the molecule `CCCCCCCCCCCCCCCC(=O)NCCCC[C@H](NC(=O)CCOCCOCCOCCOCCOCCOCCOCCOCCOCCOCCOCCOCCNC(=O)[C@H](Cc1ccc(O)cc1)NC(=O)[C@H](CO)NC(=O)[C@H](CCC(=O)O)NC(=O)[C@H](CC(N)=O)NC(=O)[C@H](CC(C)C)NC(=O)[C@H](CCCCN)NC(=O)[C@H](CCCCN)NC(=O)[C@@H](NC(=O)[C@@H](NC(=O)[C@H](CCC(=O)O)NC(=O)[C@H](CCC(N)=O)NC(=O)[C@H](CC(C)C)NC(=O)[C@H](CO)NC(=O)[C@H](CC(C)C)NC(=O)[C@H](CCSC)NC(=O)C(C)(C)NC(=O)[C@H](Cc1ccc(O)cc1)NC(=O)[C@@H](NC(=O)[C@H](CC(C)C)NC(=O)C(C)(C)NC(=O)[C@H](CC(C)C)NC(C)=O)[C@@H](C)O)C(C)C)C(C)C)C(N)=O` (Ac-L[Aib]LTY[Aib]MLSLQEVVKKLNESY[PEG12]K(Palmitoyl)-NH2), a half-maximal response (EC50) required 1.42 µM. This EC50 is about 17-fold lower than that of the molecule before.
`CSCC[C@H](NC(=O)[C@H](CCC(=O)O)NC(=O)[C@H](Cc1ccc(O)cc1)NC(=O)[C@@H](NC(=O)[C@H](CC(C)C)NC(=O)[C@H](CC(=O)O)NC(=O)[C@H](CC(C)C)NC(C)=O)[C@@H](C)O)C(=O)N[C@@H](CC(C)C)C(=O)N[C@@H](CO)C(=O)N[C@@H](CC(C)C)C(=O)N[C@@H](CCC(N)=O)C(=O)NC(C)(C)C(=O)N[C@H](C(=O)N[C@H](C(=O)N[C@@H](CCCCN)C(=O)NC(C)(C)C(=O)N[C@@H](CC(C)C)C(=O)N[C@@H](CC(N)=O)C(=O)N[C@@H](CCC(=O)O)C(=O)N[C@@H](CO)C(=O)N[C@@H](Cc1ccc(O)cc1)C(N)=O)C(C)C)C(C)C` (Ac-LDLTYEMLSLQ[Aib]VVK[Aib]LNESY-NH2) returned a half-maximal effective concentration (EC50) of 6.66 µM. This EC50 is about 4.7-fold higher than that of the molecule before.
